Data: ChEMBL document CHEMBL5331068, “Briarane-type diterpenoids, the inhibitors of osteoclast formation by interrupting Keap1-Nrf2 interaction and activating Nrf2 pathway” (Eur J Med Chem, 2023)
Active and inactive are the calls of the source. No cut-off for these calls is given here.

What was measured:
[1] = tested on: BMDM; test: Anti-osteoclastogenesis activity in RANKL-induced C57BL/6 mouse BMDM cells assessed as decrease in bone resorption pit area incubated for 10 days in the presence of M-CSF by inverted microscopic analysis; format: functional, cell-based; conditions: dose 1-10 µM, time 10.0 day
[2] = tested on: BMDM; test: Anti-osteoclastogenesis activity in RANKL-induced C57BL/6 mouse BMDM cells assessed as inhibition of c-Fos protein level at 5 to 10 uM in the presence of M-CSF by Western blot analysis; format: functional, cell-based; conditions: dose 5-10 µM
[3] = tested on: BMDM; test: Anti-osteoclastogenesis activity in RANKL-induced C57BL/6 mouse BMDM cells assessed as suppression of early stage osteoclast differentiation at 10 uM incubated from day 1 to day 3 in the presence of M-CSF by TRAP-staining based microscopic analysis; format: functional, cell-based; conditions: time 2.0 day
[4] = tested on: BMDM; test: Anti-osteoclastogenesis activity in RANKL-induced C57BL/6 mouse BMDM cells assessed as suppression of late stage osteoclast differentiation at 10 uM incubated from day 3 to day 5 in the presence of M-CSF by TRAP-staining based microscopic analysis; format: functional, cell-based; conditions: time 2.0 day
[5] = tested on: BMDM; test: Anti-osteoclastogenesis activity in RANKL-induced C57BL/6 mouse BMDM cells assessed as increase in nuclear Nrf2 level at 5 to 10 uM in the presence of M-CSF by Western blot analysis; format: functional, cell-based; conditions: dose 5-10 µM
[6] = tested on: RAW264.7; test: Anti-osteoclastogenesis activity in RANKL-induced mouse RAW264.7 cells transfected with Nrf2 siRNA assessed as increase in c-fos expression level incubated for 3 days by Western blot analysis; format: functional, cell-based; conditions: time 3.0 day
[7] = target: T1, NF-kappa-B inhibitor alpha (Mus musculus) (UniProt Q9Z1E3); test: Inhibition of RANKL-induced IkappaBalpha phosphorylation in C57BL/6 mouse BMDM cells transfected with Nrf2 siRNA at 10 uM incubated for 60 mins by Western blot analysis; format: cell-based
T1 sequence (whole entry): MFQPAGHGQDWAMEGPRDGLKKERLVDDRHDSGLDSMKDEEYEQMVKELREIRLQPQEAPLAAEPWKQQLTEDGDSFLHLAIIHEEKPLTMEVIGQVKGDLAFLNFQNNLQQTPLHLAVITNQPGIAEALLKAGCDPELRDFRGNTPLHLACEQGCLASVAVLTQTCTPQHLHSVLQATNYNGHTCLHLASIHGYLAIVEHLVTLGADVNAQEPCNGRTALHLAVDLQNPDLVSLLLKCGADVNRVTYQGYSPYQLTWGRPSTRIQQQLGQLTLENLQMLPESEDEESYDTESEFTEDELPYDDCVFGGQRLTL

[8] = target: Kelch-like ECH-associated protein 1/Nuclear factor erythroid 2-related factor 2 (Mus musculus) (UniProt Q60795+Q9Z2X8); test: Disruption of Nrf2 -Keap1 protein-protein interaction in RANKL-induced C57BL/6 mouse BMDM cells incubated for 24 hrs by Western blot based co-immunoprecipitation analysis; format: cell-based
Chain of Kelch-like ECH-associated protein 1/Nuclear factor erythroid 2-related factor 2 (Mus musculus) (Q9Z2X8 whole entry, looked up, one chain of several): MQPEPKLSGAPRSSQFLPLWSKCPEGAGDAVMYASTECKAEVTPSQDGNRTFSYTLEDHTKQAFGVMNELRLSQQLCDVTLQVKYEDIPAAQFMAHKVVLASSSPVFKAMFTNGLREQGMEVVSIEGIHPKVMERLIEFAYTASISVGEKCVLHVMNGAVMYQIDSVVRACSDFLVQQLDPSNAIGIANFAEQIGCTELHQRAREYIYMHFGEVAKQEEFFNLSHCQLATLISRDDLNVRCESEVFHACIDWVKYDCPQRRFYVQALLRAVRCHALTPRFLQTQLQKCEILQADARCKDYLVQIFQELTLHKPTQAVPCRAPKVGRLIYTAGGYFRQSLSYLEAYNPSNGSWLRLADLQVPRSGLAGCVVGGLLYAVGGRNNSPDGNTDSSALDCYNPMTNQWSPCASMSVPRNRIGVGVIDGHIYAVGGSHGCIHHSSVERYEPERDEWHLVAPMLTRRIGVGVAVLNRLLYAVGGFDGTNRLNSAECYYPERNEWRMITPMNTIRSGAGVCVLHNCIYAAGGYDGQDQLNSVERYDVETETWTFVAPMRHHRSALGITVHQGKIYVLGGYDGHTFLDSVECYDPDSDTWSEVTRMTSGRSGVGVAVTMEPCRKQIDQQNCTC

[9] = tested on: BMDM; test: Anti-osteoclastogenesis activity in RANKL-induced C57BL/6 mouse BMDM cells assessed as downregulation of cathepsin K mRNA expression at 5 to 10 uM by qRT-PCR analysis; format: functional, cell-based; conditions: dose 5-10 µM
[10] = tested on: BMDM; test: Anti-osteoclastogenesis activity in RANKL-induced C57BL/6 mouse BMDM cells assessed as inhibition of bone resorption by measuring downregulation of Cathepsin K expression at 5 to 10 uM in the presence of M-CSF by Western blot analysis; format: functional, cell-based; conditions: dose 5-10 µM
[11] = tested on: RAW264.7; test: Anti-osteoclastogenesis activity in RANKL-induced mouse RAW264.7 cells transfected with Nrf2 siRNA assessed as increase in NQO-1 expression level incubated for 3 days by Western blot analysis; format: functional, cell-based; conditions: time 3.0 day
[12] = Cytotoxicity against C57BL/6 mouse BMDM cells incubated for 48 hrs by MTT assay; format: toxicity, cell-based; conditions: BMDM cells (bone marrow-derived macrophages)
[13] = target: T1, NF-kappa-B inhibitor alpha (Mus musculus); test: Inhibition of RANKL-induced IkappaBalpha phosphorylation in C57BL/6 mouse BMDM cells incubated for 60 mins by Western blot analysis; format: cell-based
[14] = tested on: BMDM; test: Anti-osteoclastogenesis activity in C57BL/6 mouse BMDM cells assessed as inhibition of RANKL-induced osteoclastogenesis at 10 uM incubated for 7 days in the presence of M-CSF by TRAP-staining based microscopic analysis relative to control; format: functional; conditions: C57BL/6, BMDM, 168 h, time 7 day
[15] = tested on: BMDM; test: Anti-osteoclastogenesis activity in RANKL-induced C57BL/6 mouse BMDM cells assessed as decrease in bone resorption pit number incubated for 10 days in the presence of M-CSF by inverted microscopic analysis; format: functional, cell-based; conditions: dose 1-10 µM, time 10.0 day
[16] = tested on: BMDM; test: Anti-osteoclastogenesis activity in RANKL-induced C57BL/6 mouse BMDM cells assessed as inhibition of NFATc1 protein level at 5 to 10 uM in the presence of M-CSF by Western blot analysis; format: functional, cell-based; conditions: dose 5-10 µM
[17] = tested on: BMDM; test: Anti-osteoclastogenesis activity in RANKL-induced C57BL/6 mouse BMDM cells assessed as decrease in number of F-actin ring formation at 1 to 10 uM incubated for 7 days in the presence of M-CSF by DAPI staining based fluorescence microscopic analysis; format: functional, cell-based; conditions: dose 1-10 µM, time 7.0 day
[18] = target: Kelch-like ECH-associated protein 1 (Homo sapiens, UniProt Q14145); test: Binding affinity to recombinant human Keap1 by SPR analysis
Chain of Kelch-like ECH-associated protein 1 (Q14145 whole entry): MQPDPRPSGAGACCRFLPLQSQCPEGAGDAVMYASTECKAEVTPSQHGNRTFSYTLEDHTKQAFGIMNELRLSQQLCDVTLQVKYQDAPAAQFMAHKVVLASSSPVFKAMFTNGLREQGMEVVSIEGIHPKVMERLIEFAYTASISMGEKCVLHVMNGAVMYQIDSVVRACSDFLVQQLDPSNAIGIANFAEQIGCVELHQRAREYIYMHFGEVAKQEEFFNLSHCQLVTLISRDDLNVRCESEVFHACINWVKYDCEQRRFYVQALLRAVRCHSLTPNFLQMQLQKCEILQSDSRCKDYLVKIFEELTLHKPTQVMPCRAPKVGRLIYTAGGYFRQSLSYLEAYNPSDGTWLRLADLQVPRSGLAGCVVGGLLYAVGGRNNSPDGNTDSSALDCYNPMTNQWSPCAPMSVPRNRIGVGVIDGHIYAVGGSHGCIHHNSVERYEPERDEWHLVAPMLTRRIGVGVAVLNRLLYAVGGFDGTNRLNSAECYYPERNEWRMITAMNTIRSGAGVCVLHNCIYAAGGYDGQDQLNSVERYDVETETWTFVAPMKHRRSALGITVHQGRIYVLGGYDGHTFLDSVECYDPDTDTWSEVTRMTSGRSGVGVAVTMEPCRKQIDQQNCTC

[19] = tested on: BMDM; test: Anti-osteoclastogenesis activity in RANKL-induced C57BL/6 mouse BMDM cells assessed as inhibition of NFATc1 translocation into nuclei incubated for 3 days by DAPI staining based confocal microscopic analysis; format: functional, cell-based; conditions: time 3.0 day
[20] = target: T2, Nuclear factor erythroid 2-related factor 2 (Mus musculus) (UniProt Q60795); test: Stabilization of Nrf2 in mouse RAW264.7 cells assessed as decrease in Nrf2 ubiquitination at 10 uM incubated for 48 hrs by Western blot based Co-immunoprecipitation analysis; format: cell-based
T2 sequence (whole entry): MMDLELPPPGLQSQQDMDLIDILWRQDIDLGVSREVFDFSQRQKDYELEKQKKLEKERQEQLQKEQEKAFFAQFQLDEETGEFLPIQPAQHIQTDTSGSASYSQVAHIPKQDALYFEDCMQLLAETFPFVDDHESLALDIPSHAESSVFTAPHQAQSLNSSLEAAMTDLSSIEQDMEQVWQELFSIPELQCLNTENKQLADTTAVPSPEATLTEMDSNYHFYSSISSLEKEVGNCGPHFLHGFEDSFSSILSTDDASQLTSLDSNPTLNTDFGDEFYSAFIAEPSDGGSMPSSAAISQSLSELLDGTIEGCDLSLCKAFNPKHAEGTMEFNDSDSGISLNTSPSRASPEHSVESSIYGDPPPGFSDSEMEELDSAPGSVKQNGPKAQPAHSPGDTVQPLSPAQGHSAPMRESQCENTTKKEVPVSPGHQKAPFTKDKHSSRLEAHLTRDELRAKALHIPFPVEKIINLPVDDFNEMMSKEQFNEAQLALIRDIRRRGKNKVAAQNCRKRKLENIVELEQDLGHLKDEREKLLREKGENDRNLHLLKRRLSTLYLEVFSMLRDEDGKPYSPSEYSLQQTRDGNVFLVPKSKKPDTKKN

Q: For `C=C1[C@H]2O[C@]3([C@@H](C)C(=O)O[C@H]3[C@H]1Cl)[C@@H](OC(C)=O)[C@H]1[C@]3(CC[C@H](OC(C)=O)[C@]1(C)[C@@H](OC(C)=O)[C@@H]2OC(C)=O)CO3`, which Activity [1] is on record?
A: Dose-Dependent Effect

Q: What about the Activity [2] of the same molecule?
A: Active

Q: What about the Activity [3] of the same molecule?
A: Active

Q: And the Activity [4]?
A: Active

Q: And the Activity [5]?
A: Active

Q: What about the Activity [6] of the same molecule?
A: inactive

Q: What about the inhibition [7] of the same molecule?
A: inactive

Q: What about the Activity [8] of the same molecule?
A: Active

Q: And the Activity [9]?
A: Active

Q: What about the Activity [10] of the same molecule?
A: Active

Q: What about the Activity [11] of the same molecule?
A: inactive

Q: And the CC50 at 48 h [12]?
A: > 50 µM

Q: And the inhibition [13]?
A: Active

Q: And the inhibition at 10 µM [14]?
A: 100%

Q: And the Activity [15]?
A: Dose-Dependent Effect

Q: And the Activity [16]?
A: Active

Q: And the Activity [17]?
A: Active

Q: And the Activity [18]?
A: Active

Q: And the Activity [19]?
A: Active

Q: What about the Activity [20] of the same molecule?
A: Active
